Laboratory results from US20260364215A1, “Radiopharmaceutical Compositions Targeting Ephrin Type-A Receptor 2 and Uses Thereof” (PeptiDream Inc., priority 2022, published 2026).
Read-outs that look alike come from different tables or passages of the source. Numbered stars: 1 amine (or outer) side, 2 acyl side, 3 side chain; on linkers, the order of the positions; unused ones are H or OH. Bridge positions count the residues as written; N and C are the ends. Square brackets hold non-standard residues; d marks the D form. Side chains are listed from the residue outwards. Peptide text beside a SMILES is read from it. * marks the point of attachment. DOTA(Lu) = O=C1CN2CCN3CCN(CC(=O)*)CCN(CC2)CC(=O)[O][Lu]([O]1)[O]C(=O)C3; NH(1-deoxy-D-glucityl) = OC[C@@H](O)[C@@H](O)[C@H](O)[C@@H](O)CN*; DOTA = O=C(O)CN1CCN(CC(=O)O)CCN(CC(=O)*)CCN(CC(=O)O)CC1; Trp(1-Me,7-Cl) = Cn1cc(C[C@H](N)C(=O)O)c2cccc(Cl)c21; dPhe(3-CONH2) = NC(=O)c1cccc(C[C@@H](N)C(=O)O)c1; Piperazinyl(4-CH2COOH) = O=C(O)CN1CCN(*)CC1; Trp(1-Me) = Cn1cc(C[C@H](N)C(=O)O)c2ccccc21; NMemTyr = CN[C@@H](Cc1cccc(O)c1)C(=O)O; NMe3Pal = CN[C@@H](Cc1cccnc1)C(=O)O; NMeF = CN[C@@H](Cc1ccccc1)C(=O)O; hCit = NC(=O)NCCCC[C@H](N)C(=O)O; Gly(cBu) = N[C@H](C(=O)O)C1CCC1; NMeE = CN[C@@H](CCC(=O)O)C(=O)O; Aad = N[C@@H](CCCC(=O)O)C(=O)O; Cit = NC(=O)NCCC[C@H](N)C(=O)O; NMeN = CN[C@@H](CC(N)=O)C(=O)O; CO = O=C([*:1])[*:2]

Target: T1, Recombinant Human EphA2 Fc Protein (Homo sapiens, UniProt P29317)
T1 construct: purchased Elabscience
T1 sequence (P29317 24-534 limits assumed): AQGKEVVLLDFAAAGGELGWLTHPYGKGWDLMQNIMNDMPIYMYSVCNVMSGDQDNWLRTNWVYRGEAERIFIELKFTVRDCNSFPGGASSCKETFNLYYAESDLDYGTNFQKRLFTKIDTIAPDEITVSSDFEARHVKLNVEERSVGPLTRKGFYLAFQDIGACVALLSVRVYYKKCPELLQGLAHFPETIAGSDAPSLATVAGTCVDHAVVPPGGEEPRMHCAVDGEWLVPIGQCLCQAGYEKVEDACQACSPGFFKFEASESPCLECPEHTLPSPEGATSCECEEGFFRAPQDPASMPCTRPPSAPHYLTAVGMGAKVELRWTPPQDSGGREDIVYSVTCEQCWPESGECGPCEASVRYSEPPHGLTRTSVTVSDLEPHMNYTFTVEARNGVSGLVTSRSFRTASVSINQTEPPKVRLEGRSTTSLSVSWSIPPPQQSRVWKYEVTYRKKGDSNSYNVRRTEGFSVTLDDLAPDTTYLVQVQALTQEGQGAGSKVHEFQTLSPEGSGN
Assay: Interaction analysis (kinetics, KD) of peptides and conjugates against EphA2 by SPR, Biacore T200, single-cycle kinetics (Examples B15 and B22)
Type: binding
Protocol: Example B15. Interaction Analysis by SPR was Performed Using Biacore (Cytiva)
SPR assay was performed using Biacore T200 (Cytiva).
The HBS-P+ buffer (10 mM HEPES (pH7.4), 150 mM NaCl, 0.05% (v/v) Surfactant P20) containing 1% DMSO was used as running buffer. Recombinant Human EphA2 Fc Protein (Fc tag, Elabscience) was captured by Human Antibody Capture kit (Cytiva). Peptide samples in DMSO were diluted with running buffer, and prepared five serial dilutions. Using these serial dilutions, kinetics of peptides against EphA2 was measured at a flow rate of […] at 25 °C. The method adopted for sample measurement was a single-cycle kinetics method. The analysis was conducted using the evaluation software 3.0 provided with Biacore T200. Kinetics fitting was done on the difference data obtained by subtracting the baseline data from sample measurement data. KD values were calculated based on the association rate constant (ka) and dissociation rate constant (kd).
Example B22: Interaction Analysis of Conjugates by SPR was Performed Using Biacore (Cytiva)
SPR assay was performed using Biacore T200 (Cytiva) according to Example B15.

[1] = conjugates, Biacore T200 according to Example B15, Table B16, read-out: SPR Kd
[2] = peptides, Biacore T200, 25 °C, Table B12, read-out: SPR Kd

Compound `C[C@@H](O)[C@@H]1NC(=O)[C@H](Cc2cn(C)c3ccccc23)NC(=O)[C@H](CCCCNC(=O)N2CCN(CC(=O)O)CC2)NC(=O)[C@H](Cc2cn(C)c3c(Cl)cccc23)NC(=O)[C@H](CCC(=O)O)N(C)C(=O)[C@H](CCCCNC(=O)CN2CCN(CC(=O)O)CCN(CC(=O)O)CCN(CC(=O)O)CC2)NC(=O)[C@H](C2CCC2)NC(=O)[C@H](CC(N)=O)NC(=O)[C@H](Cc2cccnc2)N(C)C(=O)[C@@H](Cc2cccc(C(N)=O)c2)NC(=O)CSC[C@@H](C(=O)N[C@H](CCC(=O)O)C(N)=O)NC(=O)[C@H](CCCC(N)=O)NC1=O.[Lu+3]` [PDC_EphA2-00027106] ({CH2CO}-[dPhe(3-CONH2)][NMe3Pal]N[Gly(cBu)]K(DOTA)[NMeE][Trp(1-Me,7-Cl)]K([CO-Piperazinyl(4-CH2COOH)])[Trp(1-Me)]T[Aad](NH2)C[dE]-NH2; thioether N-12) has a Kd [1] of less than 1 nM.

`C[C@@H](O)[C@@H]1NC(=O)[C@H](Cc2cn(C)c3ccccc23)NC(=O)[C@H](CCCCNC(N)=O)NC(=O)[C@H](Cc2cn(C)c3c(Cl)cccc23)NC(=O)[C@H](CC(N)=O)N(C)C(=O)[C@H](CCCC(N)=O)NC(=O)[C@H](C2CCC2)NC(=O)[C@H](CC(N)=O)NC(=O)[C@H](Cc2ccccc2)N(C)C(=O)[C@@H](Cc2cccc(C(N)=O)c2)NC(=O)CSC[C@@H](C(N)=O)NC(=O)[C@H](CCCC(N)=O)NC1=O` [PDC_EphA2-00019426] ({CH2CO}-[dPhe(3-CONH2)][NMeF]N[Gly(cBu)][Aad](NH2)[NMeN][Trp(1-Me,7-Cl)][hCit][Trp(1-Me)]T[Aad](NH2)C-NH2; thioether N-12) showed a Kd [2] of less than 1 nM.

`C[C@@H](O)[C@@H]1NC(=O)[C@H](Cc2cn(C)c3ccccc23)NC(=O)[C@H](CCCCNC(=O)N2CCN(CC(=O)O)CC2)NC(=O)[C@H](Cc2cn(C)c3c(Cl)cccc23)NC(=O)[C@H](CCC(=O)O)N(C)C(=O)[C@H](CCCC(N)=O)NC(=O)[C@H](C2CCC2)NC(=O)[C@H](CC(N)=O)NC(=O)[C@H](Cc2cccc(O)c2)N(C)C(=O)[C@@H](Cc2cccc(C(N)=O)c2)NC(=O)CSC[C@@H](C(=O)N[C@H](CCCCNC(=O)CN2CCN3CCN4CCN(CC2)CC(=O)[O][Lu]([O]C(=O)C3)[O]C(=O)C4)C(=O)O)NC(=O)[C@H](CCCC(N)=O)NC1=O` [PDC_EphA2-00026775] ({CH2CO}-[dPhe(3-CONH2)][NMemTyr]N[Gly(cBu)][Aad](NH2)[NMeE][Trp(1-Me,7-Cl)]K([CO-Piperazinyl(4-CH2COOH)])[Trp(1-Me)]T[Aad](NH2)C[dK](DOTA(Lu))-OH; thioether N-12) showed a Kd of less than 1 nM.

`C[C@H]1NC(=O)CSC[C@@H](C(=O)N[C@H](CCC(=O)O)C(=O)O)NC(=O)[C@H](CCCC(N)=O)NC(=O)[C@H]([C@@H](C)O)NC(=O)[C@H](Cc2cn(C)c3ccccc23)NC(=O)[C@H](CCCCNC(=O)N2CCN(CC(=O)O)CC2)NC(=O)[C@H](Cc2cn(C)c3c(Cl)cccc23)NC(=O)[C@H](CCC(=O)O)N(C)C(=O)[C@H](CCCCNC(=O)CN2CCN(CC(=O)O)CCN(CC(=O)O)CCN(CC(=O)O)CC2)NC(=O)[C@H](C2CCC2)NC(=O)[C@H](CC(N)=O)NC(=O)[C@H](Cc2cccnc2)N(C)C1=O.[Lu+3]` [PDC_EphA2-00027103] ({CH2CO}-[dA][NMe3Pal]N[Gly(cBu)]K(DOTA)[NMeE][Trp(1-Me,7-Cl)]K([CO-Piperazinyl(4-CH2COOH)])[Trp(1-Me)]T[Aad](NH2)C[dE]-OH; thioether N-12) showed a Kd [1] of less than 1 nM.

With `C[C@H]1NC(=O)CSC[C@@H](C(=O)N[C@H](CCC(=O)O)C(N)=O)NC(=O)[C@H](CCCC(N)=O)NC(=O)[C@H]([C@@H](C)O)NC(=O)[C@H](Cc2cn(C)c3ccccc23)NC(=O)[C@H](CCCCNC(=O)N2CCN(CC(=O)O)CC2)NC(=O)[C@H](Cc2cn(C)c3c(Cl)cccc23)NC(=O)[C@H](CCC(=O)O)N(C)C(=O)[C@H](CCCCNC(=O)[C@@H](CCC(=O)O)NC(=O)CN2CCN(CC(=O)O)CCN(CC(=O)O)CCN(CC(=O)O)CC2)NC(=O)[C@H](C2CCC2)NC(=O)[C@H](CC(N)=O)NC(=O)[C@H](Cc2cccnc2)N(C)C1=O.[Lu+3]` [PDC_EphA2-00027126] ({CH2CO}-[dA][NMe3Pal]N[Gly(cBu)]K([dE-DOTA])[NMeE][Trp(1-Me,7-Cl)]K([CO-Piperazinyl(4-CH2COOH)])[Trp(1-Me)]T[Aad](NH2)C[dE]-NH2; thioether N-12) the Kd [1] was less than 1 nM.

In the case of `CC(C)C[C@@H]1NC(=O)[C@H](CC(N)=O)NC(=O)[C@H](Cc2cccnc2)N(C)C(=O)[C@@H](Cc2cccc(C(N)=O)c2)NC(=O)CSC[C@@H](C(=O)N[C@H](CCCCNC(=O)CN2CCN(CC(=O)O)CCN(CC(=O)O)CCN(CC(=O)O)CC2)C(N)=O)NC(=O)[C@H](CC(N)=O)NC(=O)[C@H]([C@@H](C)O)NC(=O)[C@H](Cc2cn(C)c3ccccc23)NC(=O)[C@H](CCC(=O)NC[C@H](O)[C@@H](O)[C@H](O)[C@H](O)CO)NC(=O)[C@H](Cc2cn(C)c3c(Cl)cccc23)NC(=O)[C@H](Cc2cccnc2)N(C)C(=O)[C@H](CC(N)=O)NC1=O.[Lu+3]` [PDC_EphA2-00026424-C302] ({CH2CO}-[dPhe(3-CONH2)][NMe3Pal]NLN[NMe3Pal][Trp(1-Me,7-Cl)]E(NH(1-deoxy-D-glucityl))[Trp(1-Me)]TNC[dK](DOTA)-NH2; thioether N-12), the Kd [1] is reported as less than 1 nM.

Compound `C[C@H]1NC(=O)CSC[C@@H](C(=O)N[C@H](CCCCNC(=O)CN2CCN3CCN4CCN(CC2)CC(=O)[O][Lu]([O]C(=O)C3)[O]C(=O)C4)C(N)=O)NC(=O)[C@H](CCCC(N)=O)NC(=O)[C@H]([C@@H](C)O)NC(=O)[C@H](Cc2cn(C)c3ccccc23)NC(=O)[C@H](CCC(=O)NC[C@H](O)[C@@H](O)[C@H](O)[C@H](O)CO)NC(=O)[C@H](Cc2cn(C)c3ccccc23)NC(=O)[C@H](Cc2cccnc2)N(C)C(=O)[C@H](CCCC(N)=O)NC(=O)[C@H](C2CCC2)NC(=O)[C@H](CC(N)=O)NC(=O)[C@H](Cc2cccnc2)N(C)C1=O` [PDC_EphA2-00013705-C302] ({CH2CO}-[dA][NMe3Pal]N[Gly(cBu)][Aad](NH2)[NMe3Pal][Trp(1-Me)]E(NH(1-deoxy-D-glucityl))[Trp(1-Me)]T[Aad](NH2)C[dK](DOTA(Lu))-NH2; thioether N-12) has a Kd of less than 1 nM.

`CC(C)C[C@@H]1NC(=O)[C@H](CC(N)=O)NC(=O)[C@H](Cc2cccnc2)N(C)C(=O)[C@@H](Cc2cccc(C(N)=O)c2)NC(=O)CSC[C@@H](C(N)=O)NC(=O)[C@H](CCCCNC(=O)CN2CCN(CC(=O)O)CCN(CC(=O)O)CCN(CC(=O)O)CC2)NC(=O)[C@H]([C@@H](C)O)NC(=O)[C@H](Cc2cn(C)c3ccccc23)NC(=O)[C@H](CCCCNC(=O)N2CCN(CC(=O)O)CC2)NC(=O)[C@H](Cc2cn(C)c3c(Cl)cccc23)NC(=O)[C@H](CCC(=O)O)N(C)C(=O)[C@H](CCCC(N)=O)NC1=O.[Lu+3]` [PDC_EphA2-00026719] ({CH2CO}-[dPhe(3-CONH2)][NMe3Pal]NL[Aad](NH2)[NMeE][Trp(1-Me,7-Cl)]K([CO-Piperazinyl(4-CH2COOH)])[Trp(1-Me)]TK(DOTA)C-NH2; thioether N-12) was tested, and the Kd [1] was less than 1 nM.

Compound `CN1C(=O)[C@H](CO)NC(=O)[C@H](C2CCC2)NC(=O)[C@H](CC(N)=O)NC(=O)[C@H](Cc2cccnc2)N(C)C(=O)[C@@H](Cc2cccc(C(N)=O)c2)NC(=O)CSC[C@@H](C(=O)N[C@@H](CCCCNC(=O)CN2CCN3CCN4CCN(CC2)CC(=O)[O][Lu]([O]C(=O)C3)[O]C(=O)C4)C(N)=O)NC(=O)[C@H](Cc2cn(C)c3ccccc23)NC(=O)[C@H](CCCCNC(N)=O)NC(=O)[C@H](Cc2cn(C)c3c(Cl)cccc23)NC(=O)[C@@H]1Cc1cccnc1` [PDC_EphA2-00026602-C301] ({CH2CO}-[dPhe(3-CONH2)][NMe3Pal]N[Gly(cBu)]S[NMe3Pal][Trp(1-Me,7-Cl)][hCit][Trp(1-Me)]CK(DOTA(Lu))-NH2; thioether N-10) has a Kd of less than 1 nM.

In the case of `CC(C)C[C@@H]1NC(=O)[C@H](CC(N)=O)NC(=O)[C@H](Cc2cccnc2)N(C)C(=O)[C@@H](Cc2cccc(C(N)=O)c2)NC(=O)CSC[C@@H](C(N)=O)NC(=O)[C@H](CC(N)=O)NC(=O)[C@H]([C@@H](C)O)NC(=O)[C@H](Cc2cn(C)c3ccccc23)NC(=O)[C@H](CCC(=O)NC[C@H](O)[C@@H](O)[C@H](O)[C@H](O)CO)NC(=O)[C@H](Cc2cn(C)c3c(Cl)cccc23)NC(=O)[C@H](Cc2cccnc2)N(C)C(=O)[C@H](CC(N)=O)NC1=O` [PDC_EphA2-00026424] ({CH2CO}-[dPhe(3-CONH2)][NMe3Pal]NLN[NMe3Pal][Trp(1-Me,7-Cl)]E(NH(1-deoxy-D-glucityl))[Trp(1-Me)]TNC-NH2; thioether N-12), the Kd [2] is reported as less than 1 nM.

Compound `CC(C)C[C@@H]1NC(=O)[C@H](CC(N)=O)NC(=O)[C@H](Cc2cccnc2)N(C)C(=O)[C@@H](Cc2cccc(C(N)=O)c2)NC(=O)CSC[C@@H](C(N)=O)NC(=O)[C@H](CC(N)=O)NC(=O)[C@H]([C@@H](C)O)NC(=O)[C@H](Cc2cn(C)c3ccccc23)NC(=O)[C@H](CCCNC(N)=O)NC(=O)[C@H](Cc2cn(C)c3c(Cl)cccc23)NC(=O)[C@H](CC(N)=O)N(C)C(=O)[C@H](CC(N)=O)NC1=O` [PDC_EphA2-00026426] ({CH2CO}-[dPhe(3-CONH2)][NMe3Pal]NLN[NMeN][Trp(1-Me,7-Cl)][Cit][Trp(1-Me)]TNC-NH2; thioether N-12) has a Kd [2] of less than 1 nM.
